Values after ≈ are worked out from the molar mass of the structure shown. Active and inactive are the calls of the source. No cut-off for these calls is given here.
Columns and labels:
[1] = system: Streptococcus pneumoniae; assay: Antibacterial activity against Streptococcus pneumoniae 994 expressing mef gene by NCCLS method; format: functional
[2] = system: Streptococcus pyogenes; assay: Antibacterial activity against Streptococcus pyogenes 19615 by NCCLS method; format: functional
[3] = system: Haemophilus influenzae; assay: Antibacterial activity against Haemophilus influenzae 38 by NCCLS method; format: functional
[4] = system: Moraxella catarrhalis; assay: Antibacterial activity against Moraxella catarrhalis 8176 by NCCLS method; format: functional
[5] = system: Streptococcus pneumoniae; assay: Antibacterial activity against telethromycin-resistant Streptococcus pneumoniae 757 expressing erm gene by NCCLS method; format: functional
[6] = system: Streptococcus pneumoniae; assay: Antibacterial activity against telethromycin-resistant Streptococcus pneumoniae 162 expressing erm gene by NCCLS method; format: functional
[7] = system: Streptococcus pneumoniae; assay: Antibacterial activity against telethromycin-resistant Streptococcus pneumoniae 2840 expressing erm gene by NCCLS method; format: functional
[8] = system: Streptococcus pneumoniae; assay: Antibacterial activity against telethromycin-resistant Streptococcus pneumoniae 3489 expressing erm gene by NCCLS method; format: functional
[9] = system: Streptococcus pneumoniae; assay: Antibacterial activity against telethromycin-resistant Streptococcus pneumoniae B739 expressing erm gene by NCCLS method; format: functional
[10] = system: Streptococcus pneumoniae; assay: Antibacterial activity against telethromycin-resistant Streptococcus pneumoniae 3271 expressing erm gene by NCCLS method; format: functional
[11] = system: Streptococcus pneumoniae; assay: Antibacterial activity against telethromycin-resistant Streptococcus pneumoniae 217 expressing erm gene by NCCLS method; format: functional
[12] = system: Streptococcus pneumoniae; assay: Antibacterial activity against telethromycin-resistant Streptococcus pneumoniae 3488 expressing erm gene by NCCLS method; format: functional
[13] = system: Streptococcus pneumoniae; assay: Antibacterial activity against telethromycin-resistant Streptococcus pneumoniae AB14 expressing erm gene by NCCLS method; format: functional
[14] = system: Streptococcus pneumoniae; assay: Antibacterial activity against telethromycin-resistant Streptococcus pneumoniae 5099 expressing erm gene by NCCLS method; format: functional
[15] = system: Streptococcus pneumoniae; assay: Antibacterial activity against telethromycin-resistant Streptococcus pneumoniae 3390 expressing erm gene by NCCLS method; format: functional
[16] = system: Streptococcus pneumoniae; assay: Antibacterial activity against telethromycin-resistant Streptococcus pneumoniae 5051 expressing erm gene by NCCLS method; format: functional
[17] = system: Streptococcus pneumoniae; assay: Antibacterial activity against Streptococcus pneumoniae 3579 expressing erm gene infected in mouse systemic infection model; format: functional, organism-based
[18] = system: Streptococcus pneumoniae; assay: Antibacterial activity against Streptococcus pneumoniae 6303 by NCCLS method; format: functional
[19] = system: Streptococcus pneumoniae; assay: Antibacterial activity against Streptococcus pneumoniae 49619 by NCCLS method; format: functional
[20] = system: Streptococcus pneumoniae; assay: Antibacterial activity against Streptococcus pneumoniae 3579 expressing erm gene by NCCLS method; format: functional

SMILES | MIC [1] | MIC [2] | MIC [3] | MIC [4] | MIC [5] | MIC [6] | MIC [7] | MIC [8] | MIC [9] | MIC [10] | MIC [11] | MIC [12] | MIC [13] | MIC [14] | MIC [15] | MIC [16] | Activity [17] | MIC [18] | MIC [19] | MIC [20]
C=CCN(C)[C@H]1C[C@@H](C)O[C@@H](O[C@@H]2[C@@H](C)[C@H](OC(=O)Cc3ccccn3)[C@@H](C)C(=O)O[C@H](CC)[C@@]3(C)OC(=O)N(CCCCn4cnc(-c5ccco5)c4)[C@@H]3[C@@H](C)C(=O)[C@H](C)C[C@@]2(C)OC)[C@@H]1O | 0.125 µg/mL (≈ 0.132 µM) | 0.03 µg/mL (≈ 0.0316 µM) | < 0.06 µg/mL | 0.25 µg/mL (≈ 0.264 µM) | 1 µg/mL (≈ 1.05 µM) | 4 µg/mL (≈ 4.22 µM) | 2 µg/mL (≈ 2.11 µM) | 2 µg/mL (≈ 2.11 µM) | 2 µg/mL (≈ 2.11 µM) | 2 µg/mL (≈ 2.11 µM) | 1 µg/mL (≈ 1.05 µM) | 0.5 µg/mL (≈ 0.527 µM) | 0.25 µg/mL (≈ 0.264 µM) | 0.25 µg/mL (≈ 0.264 µM) | 0.5 µg/mL (≈ 0.527 µM) | 0.25 µg/mL (≈ 0.264 µM) | Active | 0.06 µg/mL (≈ 0.0633 µM) | 0.03 µg/mL (≈ 0.0316 µM) | 0.125 µg/mL (≈ 0.132 µM)
C=CCN(C)[C@H]1C[C@@H](C)O[C@@H](O[C@@H]2[C@@H](C)[C@H](OC(=O)Cc3cccnc3)[C@@H](C)C(=O)O[C@H](CC)[C@@]3(C)OC(=O)N(CCCCn4cnc5ncccc54)[C@@H]3[C@@H](C)C(=O)[C@H](C)C[C@@]2(C)OC)[C@@H]1O | 0.06 µg/mL (≈ 0.0643 µM) | 0.06 µg/mL (≈ 0.0643 µM) | 0.125 µg/mL (≈ 0.134 µM) | 0.06 µg/mL (≈ 0.0643 µM) | 0.5 µg/mL (≈ 0.536 µM) | 1 µg/mL (≈ 1.07 µM) | 0.5 µg/mL (≈ 0.536 µM) | 0.5 µg/mL (≈ 0.536 µM) | 0.5 µg/mL (≈ 0.536 µM) | 1 µg/mL (≈ 1.07 µM) | 0.5 µg/mL (≈ 0.536 µM) | 0.25 µg/mL (≈ 0.268 µM) | 0.125 µg/mL (≈ 0.134 µM) | 0.125 µg/mL (≈ 0.134 µM) | 0.25 µg/mL (≈ 0.268 µM) | 0.25 µg/mL (≈ 0.268 µM) | Active | 0.06 µg/mL (≈ 0.0643 µM) | 0.03 µg/mL (≈ 0.0321 µM) | 1 µg/mL (≈ 1.07 µM)
C=CCN(C)[C@H]1C[C@@H](C)O[C@@H](O[C@@H]2[C@@H](C)[C@H](OC(=O)Cc3ccccn3)[C@@H](C)C(=O)O[C@H](CC)[C@@]3(C)OC(=O)N(CCCCn4ccc5cccnc54)[C@@H]3[C@@H](C)C(=O)[C@H](C)C[C@@]2(C)OC)[C@@H]1O | 0.25 µg/mL (≈ 0.268 µM) | 0.03 µg/mL (≈ 0.0322 µM) | < 0.06 µg/mL | 0.25 µg/mL (≈ 0.268 µM) | 1 µg/mL (≈ 1.07 µM) | 4 µg/mL (≈ 4.29 µM) | 2 µg/mL (≈ 2.15 µM) | 2 µg/mL (≈ 2.15 µM) | 2 µg/mL (≈ 2.15 µM) | 4 µg/mL (≈ 4.29 µM) | 1 µg/mL (≈ 1.07 µM) | 0.5 µg/mL (≈ 0.536 µM) | 0.25 µg/mL (≈ 0.268 µM) | 0.25 µg/mL (≈ 0.268 µM) | 0.25 µg/mL (≈ 0.268 µM) | 0.5 µg/mL (≈ 0.536 µM) | Active | 0.03 µg/mL (≈ 0.0322 µM) | 0.03 µg/mL (≈ 0.0322 µM) | 1 µg/mL (≈ 1.07 µM)
C=CCN(C)[C@H]1C[C@@H](C)O[C@@H](O[C@@H]2[C@@H](C)[C@H](OC(=O)Cc3ccccn3)[C@@H](C)C(=O)O[C@H](CC)[C@@]3(C)OC(=O)N(CCCCn4cnc5ncccc54)[C@@H]3[C@@H](C)C(=O)[C@H](C)C[C@@]2(C)OC)[C@@H]1O | 0.5 µg/mL (≈ 0.536 µM) | 0.06 µg/mL (≈ 0.0643 µM) | < 0.06 µg/mL | 0.25 µg/mL (≈ 0.268 µM) | 0.25 µg/mL (≈ 0.268 µM) | 1 µg/mL (≈ 1.07 µM) | 0.5 µg/mL (≈ 0.536 µM) | 0.5 µg/mL (≈ 0.536 µM) | 0.5 µg/mL (≈ 0.536 µM) | 0.5 µg/mL (≈ 0.536 µM) | 0.125 µg/mL (≈ 0.134 µM) | 0.125 µg/mL (≈ 0.134 µM) | 0.06 µg/mL (≈ 0.0643 µM) | 0.06 µg/mL (≈ 0.0643 µM) | 0.125 µg/mL (≈ 0.134 µM) | 0.125 µg/mL (≈ 0.134 µM) | Active | 0.06 µg/mL (≈ 0.0643 µM) | 0.06 µg/mL (≈ 0.0643 µM) | 0.5 µg/mL (≈ 0.536 µM)

Source: ChEMBL document CHEMBL1933046, “Synthesis and antibacterial activity of a novel series of acylides active against community acquired respiratory pathogens” (2012)
